Results published in article PMC8762671 (Chemical research in toxicology, 2021).

What was measured:
[1] = system: human iPSC-derived cardiomyocytes; conditions: standard donor 1434 compared to the other 4 donors; ref [36]; cited from earlier work
[2] = system: human iPSC-derived cardiomyocytes; test: Ca2+ flux assay; assay type: cell-based; conditions: for critical endpoint (most sensitive phenotype): phenotype with lowest POD for the population median

COc1cc(N)c(Cl)cc1C(=O)NC1CCN(CCCOc2ccc(F)cc2)CC1OC (centres unmarked) [Cisapride, cisapride]
efficacy (Emax, maximum increase in decay-rise ratio) [1]: greatest efficacy

CC(C)NCC(O)c1ccc(O)c(O)c1 (centres unmarked) [Isoproterenol]
effect on beat rate ([+] chronotropy positive control) ([2]; 10 μM, 90 min exposure, 5 donors, response vs vehicle control): expected effects on beat rate

COCCc1ccc(OCC(O)CNC(C)C)cc1 (centres unmarked) [metoprolol]
critical endpoint (most sensitive phenotype) [2]: did not exhibit decay-rise ratio as the critical endpoint

CC(C)NCC(O)COc1cccc2ccccc12 (centres unmarked) [propranolol]
effect on beat rate ([-] chronotropy positive control) ([2]; 0.5 μM, 90 min exposure, 5 donors, response vs vehicle control): expected effects on beat rate

CC/C(=C(\c1ccccc1)c1ccc(OCCN(C)C)cc1)c1ccccc1 [tamoxifen]
critical endpoint (most sensitive phenotype) [2]: did not exhibit decay-rise ratio as the critical endpoint
